For 20 molecules, IC50 results are on record in US9133187B2, “Serine/threonine kinase inhibitors” (ARRAY BIOPHARMA INC., priority 2011, dated 2015).

Counter-ions that a name gives are not always drawn.

Experiment [1] has as its target human ERK-2 (Mitogen Activated Kinase 1) (Homo sapiens (Human), UniProt P28482). Kind of experiment: ERK-2 Enzymatic Assay. It counts as biochemical. Particulars: 5 nM ERK-2, 25 μM ATP, Omnia peptide S/T17; read-out: ERK Inhibition IC50. The protocol: Compounds were tested in an enzymatic assay using human ERK-2 (Mitogen Activated Kinase 1), recombinantly expressed as an n-terminal 6-His fusion protein in E. coli and corresponding to aa 8-360. The substrate used was the fluorescent Omnia peptide S/T17 (Invitrogen of Carlsbad, Calif.; Cat. KNZ1171C). Test compounds were diluted in DMSO in 3-fold serial dilutions at 100× final concentrations. […] The assay was run at ambient temperature in a white 384-well polypropylene plate (Nunc, Inc of Naperville, Ill.; Cat. 267462) collecting data every 50 seconds for approximately 30 minutes on an Envision plate reader (PerkinElmer, Inc. of Waltham, Mass.); Excitation 340 nm/Emission 495 nm. The data collected from each well was fit to a straight line and the resulting rates were used to calculate percent of control. Percent of control was plotted against compound concentration and IC50 values were determined using a four-parameter fit.

The test system of experiment [2] is PMA-stimulated P90RSK(Ser380) phosphorylation in HepG2 cells. Nature of the experiment: Cellular P90RSK(Ser380) Phosphorylation Assay. It counts as cell-based. As to conditions: Homo sapiens, 1.5 h compound incubation, PMA stimulation, pP90RSK(Ser380) normalized to GAPDH, read-out: Cell Assay IC50. The protocol: Inhibition of PMA-stimulated P90RSK(Ser380) phosphorylation was determined by the following in vitro cellular mechanistic assay, which comprises incubating cells with a compound for 1.5 hours and quantifying fluorescent pP90RSK(Ser380) signal on fixed cells and normalizing to GAPDH signal.
Materials and Methods: HepG2 cells were obtained from ATCC and grown in DMEM supplemented with 10% fetal bovine serum. Cells were plated in 96-well plates at 35,000 cells/well and allowed to attach overnight at 37° C./5% CO2. Diluted compounds were then added at a final concentration of 0.5% DMSO. After 1.5 hour compound incubation, cells were stimulated with the addition of PMA (phorbol 12-myristate 13-acetate) at a final concentration of 100 ng/mL; the PMA stimulation was a 30-minute incubation at 37° C./5% CO2. After the 30-minute PMA stimulation, cells were washed with PBS and fixed in 3.7% formaldehyde in PBS at room temperature for 15-20 minutes. This was followed by another wash in PBS and then permeabilization in 100% MeOH at room temperature for 10-15 minutes. Following the permeabilization incubation, cells were washed in PBS/0.05% Tween-20, followed by a block in Odyssey blocking buffer (LI-COR Biosciences) for at least 1 hour. Antibodies to phosphorylated P90RSK(Ser380) (Cell Signaling #9335, rabbit monoclonal) and GAPDH (Fitzgerald 10R-G109a, mouse monoclonal) were added to the cells and incubated overnight at 4° C. pP90RSK(Ser380) antibody was used at a 1:250 dilution; GAPDH was used at a 1:10,000 dilution. After washing with PBS/0.05% Tween-20, the cells were incubated with fluorescently-labeled secondary antibodies (Anti-rabbit-Alexa Flour680, Invitrogen Cat#A21109; Anti-mouse-IRDye800CW, Rockland Inc. Cat#610-131-121) for 1 hour. Both secondary antibodies were used at a 1:1000 dilution. Cells were then washed and analyzed for fluorescence at both wavelengths using the Odyssey Infrared Imaging System (LI-COR Biosciences). Phosphorylated P90RSK(Ser380) signal was normalized to GAPDH signal. Representative date is in TABLE III (infra).

Chain of human ERK-2 (Mitogen Activated Kinase 1) (P28482 8-360): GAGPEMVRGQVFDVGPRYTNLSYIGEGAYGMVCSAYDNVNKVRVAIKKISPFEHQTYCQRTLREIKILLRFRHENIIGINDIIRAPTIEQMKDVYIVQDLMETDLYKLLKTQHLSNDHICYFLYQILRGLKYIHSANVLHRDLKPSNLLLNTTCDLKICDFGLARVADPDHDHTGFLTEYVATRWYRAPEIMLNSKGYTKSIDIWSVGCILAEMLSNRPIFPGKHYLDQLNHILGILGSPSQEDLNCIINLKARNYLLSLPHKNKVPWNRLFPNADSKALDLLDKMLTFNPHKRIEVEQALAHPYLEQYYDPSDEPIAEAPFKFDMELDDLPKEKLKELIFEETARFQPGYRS

Consider `CC(C)Nc1ncc2c(n1)CN(C(=O)N[C@H](CNc1ccncn1)c1ccc(F)c(Cl)c1)CC2` [II-51, 2-Isopropylamino-5,8-dihydro-6H-pyrido[3,4-d]pyrimidine-7-carboxylic acid [(S)-1-(3-chloro-4-fluoro-phenyl)-2-(pyrimidin-4-ylamino)-ethyl]-amide], for which the IC50 was found to be 2.4 nM in experiment [1] and 435 nM in experiment [2].

In the case of `CS(=O)(=O)CC[C@@H](NC(=O)N1CCc2cnc(NC3CCOCC3)nc2C1)c1ccc(Cl)c(Cl)c1` [Compound I-105, (R)—N-(1-(3,4-dichlorophenyl)-3-(methylsulfonyl)propyl)-2-(tetrahydro-2H-pyran-4-ylamino)-5,6-dihydropyrido[3,4-d]pyrimidine-7(8H)-carboxamide], the IC50 turned out to be 2.6 nM in experiment [1] and 101 nM in experiment [2].

Take `CCOc1cc(Nc2ncc3c(n2)CN(C(=O)N[C@H](C)c2ccc(Cl)c(Cl)c2)CC3)ccn1` [Compound I-35, (R)—N-(1-(3,4-dichlorophenyl)ethyl)-2-(2-ethoxypyridin-4-ylamino)-5,6-dihydropyrido[3,4-d]pyrimidine-7(8H)-carboxamide]: the IC50 in experiment [1] turned out to be 5.6 nM; in experiment [2], 91.3 nM.

As to `O=C(N1CCc2cnc(NC3CCOCC3)nc2C1)N1CCCC1c1ccc(F)cc1` (stereo not drawn) [Compound I-134, (2-(4-fluorophenyl)pyrrolidin-1-yl)(2-(tetrahydro-2H-pyran-4-ylamino)-5,6-dihydropyrido[3,4-d]pyrimidin-7(8H)-yl)methanone], the IC50 was found to be 20.4 nM in experiment [1] and 1200 nM in experiment [2].

Take `CNC[C@@H](NC(=O)N1CCc2cnc(NC(C)C)nc2C1)c1ccc(C(F)(F)F)c(F)c1` [Compound I-66, (S)—N-(1-(3-fluoro-4-(trifluoromethyl)phenyl)-2-(methylamino)ethyl)-2-(isopropylamino)-5,6-dihydropyrido[3,4-d]pyrimidine-7(8H)-carboxamide hydrochloride]: the IC50 in experiment [1] was 4.1 nM; in experiment [2], 132 nM.

For `O=C(NC1(c2ccc(Cl)cc2)CCNC1)N1CCc2cnc(Nc3ccc(F)cc3)nc2C1` (stereo not drawn) [II-64, 2-(4-Fluoro-phenylamino)-5,8-dihydro-6H-pyrido[3,4-d]pyrimidine-7-carboxylic acid [3-(4-chloro-phenyl)-pyrrolidin-3-yl]-amide], the half-inhibitory concentration (IC50) in experiment [1] was determined as 38.3 nM; in experiment [2], 3100 nM.

`COCCNC[C@@H](NC(=O)N1CCc2cnc(NC(C)C)nc2C1)c1ccc(F)c(Cl)c1` [II-41, 2-Isopropylamino-5,8-dihydro-6H-pyrido[3,4-d]pyrimidine-7-carboxylic acid [(S)-1-(3-chloro-4-fluoro-phenyl)-2-(2-methoxy-ethylamino)-ethyl]-amide]: the IC50 in experiment [1] was 15.4 nM; in experiment [2] it was 1900 nM.

In the case of `CNC[C@@H](NC(=O)N1CCc2cnc(Nc3ccc(F)cc3)nc2C1)c1ccc(F)c(Cl)c1` [II-35, 2-(4-Fluoro-phenylamino)-5,8-dihydro-6H-pyrido[3,4-d]pyrimidine-7-carboxylic acid [(S)-1-(3-chloro-4-fluoro-phenyl)-2-methylamino-ethyl]-amide], the IC50 is 21.5 nM in experiment [1] and 160 nM in experiment [2].

On to `O=C(N[C@H](CO)c1ccc(F)c(Cl)c1)N1CCc2cnc(N[C@H](CO)Cc3ccccc3)nc2C1` [II-17, 2-((S)-1-Hydroxymethyl-2-phenyl-ethylamino)-5,8-dihydro-6H-pyrido[3,4-d]pyrimidine-7-carboxylic acid [(S)-1-(3-chloro-4-fluoro-phenyl)-2-hydroxy-ethyl]-amide], for which the 50% inhibitory concentration (IC50) in experiment [2] was 1100 nM.

Consider `Cc1noc(C)c1Nc1ncc2c(n1)CN(C(=O)N[C@H](CO)c1ccc(F)c(Cl)c1)CC2` [II-34, 2-(3,5-Dimethyl-isoxazol-4-ylamino)-5,8-dihydro-6H-pyrido[3,4-d]pyrimidine-7-carboxylic acid [(S)-1-(3-chloro-4-fluoro-phenyl)-2-hydroxy-ethyl]-amide], for which the results for the IC50 in experiment [1] and in experiment [2] were 25.9 nM and 13200 nM, respectively.

For `CNC[C@@H](NC(=O)N1CCc2cnc(Nc3ccc(F)cc3)nc2C1)c1ccc(C(F)(F)F)c(F)c1` [Compound I-68, (S)—N-(1-(3-fluoro-4-(trifluoromethyl)phenyl)-2-(methylamino)ethyl)-2-(4-fluorophenylamino)-5,6-dihydropyrido[3,4-d]pyrimidine-7(8H)-carboxamide hydrochloride], the concentration for half-maximal inhibition (IC50) in experiment [1] was 2.3 nM; in experiment [2], 146 nM.

For the molecule `CC(C)Nc1ncc2c(n1)CN(C(=O)NCc1cc3ccccc3[nH]1)CC2` [II-195, 2-Isopropylamino-5,8-dihydro-6H-pyrido[3,4-d]pyrimidine-7-carboxylic acid (1H-indol-2-ylmethyl)-amide], the half-maximal inhibitory concentration (IC50) was 6.6 nM in experiment [1] and 281 nM in experiment [2].

As to `C[C@@H](CO)Nc1ncc2c(n1)CN(C(=O)NCc1cccc3cc[nH]c13)CC2` [II-200, 2-((S)-2-Hydroxy-1-methyl-ethylamino)-5,8-dihydro-6H-pyrido[3,4-d]pyrimidine-7-carboxylic acid (1H-indol-7-ylmethyl)-amide], the IC50 came to 411 nM in experiment [1] and 1000 nM in experiment [2].

`C[C@@H](NC(=O)N1CCc2cnc(NC3CCN(C)CC3)nc2C1)c1ccc(Cl)c(Cl)c1` [Compound I-83, (R)—N-(1-(3,4-dichlorophenyl)ethyl)-2-(1-methylpiperidin-4-ylamino)-5,6-dihydropyrido[3,4-d]pyrimidine-7(8H)-carboxamide]: the IC50 in experiment [1] was determined as 113 nM; in experiment [2] it was 2500 nM.

`CC(C)Nc1ncc2c(n1)CN(C(=O)NC[C@H](c1ccc(C(F)(F)F)c(F)c1)N1CCCC1)CC2` [II-102, 2-Isopropylamino-5,8-dihydro-6H-pyrido[3,4-d]pyrimidine-7-carboxylic acid [(S)-2-(3-fluoro-4-trifluoromethyl-phenyl)-2-pyrrolidin-1-yl-ethyl]-amide]: the concentration for half-maximal inhibition (IC50) in experiment [1] stood at 409 nM.

`CC(C)Nc1ncc2c(n1)CN(C(=O)N[C@@H](c1ccc(C(F)(F)F)c(F)c1)c1cccc(=O)[nH]1)CC2` [II-99, 2-Isopropylamino-5,8-dihydro-6H-pyrido[3,4-d]pyrimidine-7-carboxylic acid [(S)-(3-fluoro-4-trifluoromethyl-phenyl)-(6-oxo-1,6-dihydro-pyridin-2-yl)-methyl]-amide]: the IC50 in experiment [2] came to 5600 nM.

For the molecule `O=C(N1CCc2cnc(NC3CCOCC3)nc2C1)N1CCCC1c1nccs1` (stereo not drawn) [Compound I-139, (2-(tetrahydro-2H-pyran-4-ylamino)-5,6-dihydropyrido[3,4-d]pyrimidin-7(8H)-yl)(2-(thiazol-2-yl)pyrrolidin-1-yl)methanone], in experiment [1], the half-maximal inhibitory concentration (IC50) was 264 nM.

Turning to `O=C(N1CCc2cnc(NC3CCOCC3)nc2C1)N1CCNCC1c1ccccc1` (stereo not drawn) [Compound I-141, (2-Phenylpiperazin-1-yl)(2-(tetrahydro-2H-pyran-4-ylamino)-5,6-dihydropyrido[3,4-d]pyrimidin-7(8H)-yl)methanone], the IC50 in experiment [1] was found to be 108 nM.

Take `CC1CC(Nc2ncc3c(n2)CN(C(=O)N[C@H](CO)c2ccc(Cl)c(F)c2)CC3)CCO1` (stereo partly drawn) [II-366]: the IC50 in experiment [2] was determined as 91 nM.

Take `CC(C)OC[C@@H](NC(=O)N1CCc2cnc(N[C@H]3CC[C@H](O)C3)nc2C1)c1ccc(F)c(Cl)c1` [II-95, 2-((1S,3S)-3-Hydroxy-cyclopentylamino)-5,8-dihydro-6H-pyrido[3,4-d]pyrimidine-7-carboxylic acid [(S)-1-(3-chloro-4-fluoro-phenyl)-2-isopropoxy-ethyl]-amide]: in experiment [2], the concentration for half-maximal inhibition (IC50) came out at 551 nM.

Usually IC50 stands for the concentration at which inhibition is half-maximal.
